The subject of experiment [1] is pancreatic islets. The experiment is described as follows: Glucose-stimulated insulin secretion (GSIS) of isolated islets. In kind it is cell-based, C57BL/6J mice. Particulars: for Insulin Secretion: 16.7 mM glucose + 10 nM peptide, groups of 5 islets, 60 min incubation; for Insulin release compared with islets cultured without the addition of peptides: 16.7 mM glucose, 10 nM peptide, result in words. Here is the method:
The pancreases were procured from male adult C57BL/6J mice. After 7 days acclimation, the animals were sacrificed by cervical dislocation and the entire pancreas was removed and digested with collagenase to isolate islets. After digestion, islets were maintained at 37° C. in RPMI 1640 (Carlsbad Calif., USA) pH 7.4, containing 10% (v/v) fetal calf serum, 1% penicillin/streptomycin, and 10 mM glucose in a humid atmosphere (5% CO2/95% O2), without the addition of any compound (control), or with the addition of 10 nM glucagon like peptide-1 (GLP-1); or 10 nM INGAP-PP; or 10 nM Peptide 1, Peptide 2 or Peptide 3, as summarized in Table 5 below.
Cultured islets were rinsed in Krebs-Ringer bicarbonate buffer (KRB), pH 7.4, previously gassed with a mixture of CO2/O2 (5/95%), and pre-incubated in 1.0 mL of KRB containing 0.5% (w/v) BSA and 2.8 mM glucose at 37° C. for 45 min. After this period, groups of 5 islets were incubated in 0.6 mL KRB with the addition of 2.8 or 16.7 mM glucose, with or without the addition of peptides for 60 min. At the end of the incubation period, aliquots of the medium were collected for insulin quantitation.

In experiment [2] the test system is STZ induced diabetic mice. The experiment is described as follows: Blood glucose in streptozotocin (STZ) induced diabetic mice model. In kind it is in vivo, C57BL/6J mice. Particulars: 250 nM/kg, day 8 of treatment. Here is the method: (§1) After acclimatization in the animal facility for one week, 6-8 weeks old C57BL/6J mice were administered high dose STZ at 150 mg/kg in citrate buffer to establish a T1D animal model. Mice with blood glucose greater than 16.7 mmol/L at 10 days post last STZ injection were included in the study. These mice were then treated with INGAP-PP or GLP-1 or Peptide 2 at the dose of 250 nM/kg for 10 days before sacrifices. One additional group of diabetic mice were administered with saline as model control groups. Blood glucose levels were measured on day 8. Ten days post the last dosing of test agents, an oral glucose tolerance test (OGTT) was performed in 6 hours fasted animals. Blood samples obtained from the tail for glucose determination were detected with an ACCU-CHEK™ glucometer (Roche, ACCU-CHEK® Performa)
(§2) The blood glucose (BG, mM) present were measured on day 8 of treatment. The area under curve (AUC) of glucose (T0˜120 min) measured in an oral glucose tolerance test (OGTT) on day 10 of treatment.

Experiment [3] has as its system STZ induced diabetic mice. The experiment is described as follows: Oral glucose tolerance test (OGTT) in STZ induced diabetic mice model. It counts as in vivo, C57BL/6J mice. Particulars: 250 nM/kg, glucose AUC T0~120 min, day 10 of treatment, 6 hours fasted. The procedure:
as §1, §2

Experimental findings from patent publication US10829527B2, “Conjugates of islet neogenesis peptides and analogs, and methods thereof” (SHENZHEN HIGHTIDE BIOPHARMACEUTICAL, LTD., priority 2016, dated 2020) are described below.

Consider “H-IGLHDPSHGTLPNGS-OH (also: D-Isoleucine at 1) [INGAP-PP]”, for which, in experiment [1], the “Insulin Secretion” value was 2.5 ± 1.0 ng/islet/hour and the “Insulin release compared with islets cultured without the addition of peptides” value is given as “no stimulation”. Further, in experiment [2], the “Blood Glucose (Day 8)” value was 25.9 ± 9.1 mM. Besides, the “AUC of OGTT (Day 10)” value in experiment [3] stood at 3207.6 ± 801.5.
In the same order, the values of glucagon like peptide-1 [GLP-1] are 5.4 ± 2.1 ng/islet/hour, “significantly more insulin”, 22.1 ± 6.8 mM and 3054.7 ± 728.9.
